Values after ≈ are worked out from the molar mass of the structure shown.
Tests used:
Assay type in all cases: cell-based
[1] = test system: Penicllium expansum (RCMB 1006); assay: Antimicrobial screening, disc diffusion; conditions: Penicillium expansum; for Diameter of inhibition zone: compounds isolated from Cunninghamella elegans
Experimental: (§1) The alcoholic extracts obtained were used for testing their antimicrobial activity. Each extract (0.5 g) was dissolved in 10 ml water. Same concentrations for the successive extracts (using diethyl ether, chloroform, ethyl acetate and n-butanol) were also prepared.
(§2) The representatives of Gram negative bacteria, namely Salmonella typhimuium (RCMB 0104), Escherichia coli (RCMB 0103), Pseudomonas aeruginosa (RCMB 0102) and Gram positive bacteria, namely Bacillus subtilis (RCMB 0107), Staphylococcus aureus (RCMB 0106), Streptococcus pyogenes (RCMB 0109), unicellular fungi, namely Candida albicans (RCMB 5002) and filamentous fungi, namely Aspergillus fumigatus (RCMB 2003) and Penicllium expansum (RCMB 1006) were used as test organisms (RCMB: The Regional Center for Mycology and Biotechnology, Al-azhar University Nasser City, Cairo, Egypt).
(§3) For antimicrobial screening the well known disc diffusion and agar well diffusion methods were used, together with the determination of minimum inhibitory concentration (MIC), see Duguid et al., Microbial Infections, The English Language Book Society, Churchill Livingston, Edingburgh, London, 1978; vol. 1, page 110.
(§4) Disc diffusion method: The agar disc diffusion method is employed for the determination of antimicrobial activities of the extracts of the investigated fungal species. Sterilized paper discs (Whatman No. 1) ([…]) were separately soaked in the extracts and transferred onto the surface of growth media seeded with the test organism. After incubation period, following suitable conditions for the test organism, the diameter of the inhibition zone around the discs was measured in millimeters. The obtained result was the mean of three experiments.
(§5) Each fungal species was grown on malt extract media at 28±2° C. for 14 days. The metabolites of the fungal species were screened for antimicrobial activity. The inhibition zones around each disc were measured, in millimeter, and recorded (Tables 1).

[2] = test system: Aspergillus fumigatus (RCMB 2003); assay: Antimicrobial screening, disc diffusion; conditions: for Diameter of inhibition zone: compounds isolated from Cunninghamella elegans
Experimental: as §1, §2, §3, §4, §5

[3] = test system: Candida albicans (RCMB 5002); assay: Antimicrobial screening, disc diffusion; conditions: for Diameter of inhibition zone: compounds isolated from Cunninghamella elegans
Experimental: as §1, §2, §3, §4, §5

[4] = test system: Salmonella typhimuium (RCMB 0104); assay: Antimicrobial screening, disc diffusion; conditions: Salmonella typhimuim; compounds isolated from Cunninghamella elegans
Experimental: as §1, §2, §3
as §4, with “millimeters.” for “millimeters. The obtained result was the mean of three experiments.”
Each fungal species was grown on malt extract media at 28±2° C. for 14 days. The metabolites of the fungal species were screened for antimicrobial activity.

[5] = test system: Staphylococcus aureus (RCMB 0106); assay: Antimicrobial screening, disc diffusion; conditions: compounds isolated from Cunninghamella elegans
Experimental: as §1, §2, §3, §4, §5

[6] = test system: Streptococcus pyogenes (RCMB 0109); assay: Antimicrobial screening, disc diffusion; conditions: compounds isolated from Cunninghamella elegans
Experimental: as §1, §2, §3, §4, §5

[7] = test system: Escherichia coli (RCMB 0103); assay: Antimicrobial screening, disc diffusion; conditions: compounds isolated from Cunninghamella elegans
Experimental: as §1, §2, §3, §4, §5

[8] = test system: Pseudomonas aeruginosa (RCMB 0102); assay: Antimicrobial screening, disc diffusion; conditions: Pseudomonas aeurginosa; compounds isolated from Cunninghamella elegans
Experimental: as §1, §2, §3, §4, §5

[9] = test system: Bacillus subtilis (RCMB 0107); assay: Antimicrobial screening, disc diffusion; conditions: compounds isolated from Cunninghamella elegans
Experimental: as §1, §2, §3, §4, §5

[10] = test system: Staphylococcus aureus; assay: Minimum inhibitory concentration, agar well diffusion; conditions: against Staphylococcus aureus; read-out: Minimum inhibitory concentration
Excerpt: as §3
Agar well diffusion method: On the other hand, the agar well diffusion method was employed for determination of the minimum inhibitory concentration (MIC). The test organisms were separately seeded in the agar medium. The wells (10 mm in diameter) were cut from the agar and […] (different concentrations) was transferred into them. After incubation period, following suitable conditions for the test organism, the diameter of the inhibition zone around the discs was measured in millimeters. The obtained result was the mean of three experiments.
The minimum inhibitory concentration (MIC) of Cunninghamella blakesleeana, C. elegans, C. homothallica and successive extracts and isolated compounds of Cunninghamella elegans against Staphylococcus aureus was determined.
Minimum inhibitory concentration (MIC): The lowest concentration of an antimicrobial agent that will inhibit a visible growth of a microorganism after overnight incubation.

Clc1ccccc1C(c1ccccc1)(c1ccccc1)n1ccnc1 [Clotrimazole, reference compound]
zone of inhibition at 1000 µg/mL ([1]; RCMB1006, Standard Antibiotics (1 mg/ml), read-out: Diameter of inhibition zone): 23 ± 0.3 mm
zone of inhibition at 1000 µg/mL ([2]; RCMB2003, Standard Antibiotics (1 mg/ml), read-out: Diameter of inhibition zone): 26 ± 0.1 mm
zone of inhibition at 1000 µg/mL ([3]; RCMB5002, Standard Antibiotics (1 mg/ml), read-out: Diameter of inhibition zone): 18 ± 0.1 mm

CCCCCCCCCCCCCCCC(=O)O [Compound 1, palmitic acid]
Diameter of inhibition zone [4]: 00.0 mm
Diameter of inhibition zone [1]: 00.0 mm
Diameter of inhibition zone [5]: 13.0 mm
Diameter of inhibition zone [2]: 00.0 mm
Diameter of inhibition zone [3]: 00.0 mm
Diameter of inhibition zone [6]: 00.0 mm
Diameter of inhibition zone [7]: 00.0 mm
Diameter of inhibition zone [8]: 00.0 mm
Diameter of inhibition zone [9]: 00.0 mm

CCCCCCCC/C=C\CCCCCCCC(=O)O [Compound 2, oleic acid]
Diameter of inhibition zone [4]: 00.0 mm
Diameter of inhibition zone [1]: 00.0 mm
Diameter of inhibition zone [5]: 11.0 ± 0.3 mm
Diameter of inhibition zone [2]: 00.0 mm
Diameter of inhibition zone [3]: 00.0 mm
Diameter of inhibition zone [6]: 00.0 mm
Diameter of inhibition zone [7]: 00.0 mm
Diameter of inhibition zone [8]: 00.0 mm
Diameter of inhibition zone [9]: 00.0 mm

CCCCCCCCCCCCCCCCCC(=O)O [Compound 3, stearic acid]
Diameter of inhibition zone [4]: 00.0 mm
Diameter of inhibition zone [1]: 00.0 mm
Diameter of inhibition zone [5]: 15.0 ± 0.5 mm
Diameter of inhibition zone [2]: 00.0 mm
Diameter of inhibition zone [3]: 00.0 mm
Diameter of inhibition zone [6]: 00.0 mm
Diameter of inhibition zone [7]: 00.0 mm
Diameter of inhibition zone [8]: 00.0 mm
Diameter of inhibition zone [9]: 00.0 mm

O=C(O)c1cc(O)c(O)c(O)c1 [Compound 7, 3,4,5-trihydroxy-benzoic acid]
MIC [10]: 130 µg/mL (≈ 764 µM)
Diameter of inhibition zone [1]: 00.0 mm
Diameter of inhibition zone [5]: 05.0 ± 0.5 mm
Diameter of inhibition zone [2]: 00.0 mm
Diameter of inhibition zone [3]: 00.0 mm
Diameter of inhibition zone [6]: 00.0 mm
Diameter of inhibition zone [7]: 00.0 mm
Diameter of inhibition zone [8]: 00.0 mm
Diameter of inhibition zone [9]: 00.0 mm
